Each compound was assayed against T1, KRAS G12C protein (Homo sapiens, UniProt P01116, G12C) (assay: ERK protein phosphorylation assay (p-ERK) in H358 cells). Conditions: H358 cells expressing KRAS G12C protein, 3 h incubation with compound; read-out: IC50, inhibiting phosphorylation of KRAS G12C protein-mediated downstream signaling (p-ERK).
T1 construct: H358 cells (ATCC, CRL-5807) expressing KRAS G12C protein; host or cells: H358 (NCI-H358) cells
Assay type: cell-based
Set-up: scale not given here
Method: The cells were cultured in a 5% CO2 cell incubator for 16 h. The serially diluted compound was added to the cell medium with Echo550 at a final DMSO concentration of 0.5%, and the incubation was continued for 3 h. Then 8% paraformaldehyde (Solarbio, P1112) was added at 40 μL/well, followed by incubation at room temperature for 20 min. After one washing with PBS, cold 100% methanol was added at 40 μL/well for permeabilization for 10 min. […] Washing with PBST was performed 3 times, with 2 min of incubation for each washing. […] Washing with PBST was performed 3 times, with 2 min of incubation for each washing. Finally, the cell culture plate was inverted and centrifuged at 1000 rpm for 1 min, after which fluorescence signals were read using Odyssey CLx.

T1 sequence (P01116 1-188 isoform P01116-2 G12C): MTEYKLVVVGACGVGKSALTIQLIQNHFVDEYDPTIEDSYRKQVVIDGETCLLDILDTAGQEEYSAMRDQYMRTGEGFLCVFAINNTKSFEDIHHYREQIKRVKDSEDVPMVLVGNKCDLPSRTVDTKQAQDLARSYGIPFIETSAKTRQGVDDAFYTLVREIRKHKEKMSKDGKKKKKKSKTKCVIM

IC50 [nM] | Compound
< 1000 | [2H]C([2H])([2H])c1cccc2cccc(N3CCc4c(nc(OC[C@@H]5CCCN5C)nc4N4CCN(C(=O)/C=C/CNC5CC5)[C@@H](C)C4)C3)c12 [Compound 3, (E)-4-(cyclopropylamino)-1-((S)-2-methyl-4-(7-(8-(methyl-d3)naphthalen-1-yl)-2-(((S)-1-methylpyrrolidin-2-yl)methoxy)-5,6,7,8-tetrahydropyrido[3,4-d]pyrimidin-4-yl)piperazin-1-yl)-2-buten-1-one]
< 1000 | [2H]C([2H])([2H])c1cccc2cncc(N3CCc4c(nc(OC[C@@H]5CCCN5C)nc4N4CCN(C(=O)C=C)[C@@H](CC#N)C4)C3)c12 [Compound 4, 2-((S)-1-acryloyl-4-(7-(5-(methyl-d3)isoquinolin-4-yl)-2-(((S)-1-methylpyrrolidin-2-yl)methoxy)-5,6,7,8-tetrahydropyrido[3,4-d]pyrimidin-4-yl)piperazin-2-yl)acetonitrile]
< 1000 | [2H]C([2H])([2H])c1cccc2cccc(N3CCc4c(nc(OC[C@@H]5CCCN5C)nc4N4CCN(C(=O)C(=C)F)[C@@H](C)C4)C3)c12 [Compound 5, 2-fluoro-1-((S)-2-methyl-4-(7-(8-(methyl-d3)naphthalen-1-yl)-2-(((S)-1-methylpyrrolidin-2-yl)methoxy)-5,6,7,8-tetrahydropyrido[3,4-d]pyrimidin-4-yl)piperazin-1-yl)-2-propen-1-one]
< 1000 | C=C(F)C(=O)N1CCN(c2nc(OC[C@@H]3CCCN3C)nc3c2CCN(c2cccc4cccc([11CH3])c24)C3)C[C@@H]1CC#N [Compound 9, 2-((S)-1-(2-fluoroacryloyl)-4-(7-(8-(methyl-^11C)naphthalen-1-yl)-2-(((S)-1-methylpyrrolidin-2-yl)methoxy)-5,6,7,8-tetrahydropyrido[3,4-d]pyrimidin-4-yl)piperazin-2-yl)acetonitrile]
< 1000 | C=C(F)C(=O)N1CCN(c2nc(OC[C@@H]3CCCN3C)nc3c2CCN(c2cccc4cccc([13CH3])c24)C3)C[C@@H]1CC#N [Compound 11, 2-((S)-1-(2-fluoroacryloyl)-4-(7-(8-(methyl-^13C)naphthalen-1-yl)-2-(((S)-1-methylpyrrolidin-2-yl)methoxy)-5,6,7,8-tetrahydropyrido[3,4-d]pyrimidin-4-yl)piperazin-2-yl)acetonitrile]
< 1000 | C=CC(=O)N1CCN(c2nc(OC[C@@H]3CCCN3C)nc3c2CCN(c2cccc4cccc([14CH3])c24)C3)C[C@@H]1CC#N [Compound 12, 2-((S)-1-acryloyl-4-(7-(8-(methyl-^14C)naphthalen-1-yl)-2-(((S)-1-methylpyrrolidin-2-yl)methoxy)-5,6,7,8-tetrahydropyrido[3,4-d]pyrimidin-4-yl)piperazin-2-yl)acetonitrile]
< 1000 | [2H]C([2H])([2H])N1CCC[C@H]1COc1nc2c(c(N3CCN(C(=O)/C=C/CNC4CC4)[C@@H](CC#N)C3)n1)CCN(c1cccc3cccc(C)c13)C2 [Compound 19, 2-((S)-1-((E)-4-(cyclopropylamino)-2-butenoyl)-4-(2-(((S)-1-(methyl-d3)pyrrolidin-2-yl)methoxy)-7-(8-methylnaphthalen-1-yl)-5,6,7,8-tetrahydropyrido[3,4-d]pyrimidin-4-yl)piperazin-2-yl)acetonitrile]
< 1000 | [2H]C([2H])([2H])c1cccc2cccc(N3CCc4c(nc(OC[C@@H]5CCCN5C([2H])([2H])[2H])nc4N4CCN(C(=O)C=C)[C@@H](C)C4)C3)c12 [Compound 21, 1-((S)-2-methyl-4-(7-(8-(methyl-d3)naphthalen-1-yl)-2-(((S)-1-(methyl-d3)pyrrolidin-2-yl)methoxy)-5,6,7,8-tetrahydropyrido[3,4-d]pyrimidin-4-yl)piperazin-1-yl)-2-propen-1-one]

Continued, compound first:

Compound | IC50 [nM]
[2H]C([2H])([2H])c1cccc2cccc(N3CCc4c(nc(OC[C@@H]5CCCN5C)nc4N4CCN(C(=O)C(=C)F)[C@@H](CC#N)C4)C3)c12 [Compound 2, 2-((S)-1-(2-fluoroacryloyl)-4-(7-(8-(methyl-d3)naphthalen-1-yl)-2-(((S)-1-methylpyrrolidin-2-yl)methoxy)-5,6,7,8-tetrahydropyrido[3,4-d]pyrimidin-4-yl)piperazin-2-yl)acetonitrile] | < 1000
C=CC(=O)N1CCN(c2nc(OC[C@@H]3CCCN3C)nc3c2CCN(c2cccc4cccc([11CH3])c24)C3)C[C@@H]1CC#N [Compound 6, 2-((S)-1-acryloyl-4-(7-(8-(methyl-^11C)naphthalen-1-yl)-2-(((S)-1-methylpyrrolidin-2-yl)methoxy)-5,6,7,8-tetrahydropyrido[3,4-d]pyrimidin-4-yl)piperazin-2-yl)acetonitrile] | < 1000
[2H]C([2H])([2H])c1cccc2cccc(N3CCc4c(nc(OC[C@@H]5CCCN5C)nc4N4CCN(C(=O)C(=C)F)C[C@@H]4C)C3)c12 [Compound 7, 2-fluoro-1-((S)-3-methyl-4-(7-(8-(methyl-d3)naphthalen-1-yl)-2-(((S)-1-methylpyrrolidin-2-yl)methoxy)-5,6,7,8-tetrahydropyrido[3,4-d]pyrimidin-4-yl)piperazin-1-yl)-2-propen-1-one] | < 1000
[2H]C([2H])([2H])c1cccc2cccc(N3CCc4c(nc(OC[C@@H]5CCCN5C)nc4N4CCN(C(=O)C=C)C[C@@H]4C)C3)c12 [Compound 8, 1-((S)-3-methyl-4-(7-(8-(methyl-d3)naphthalen-1-yl)-2-(((S)-1-methylpyrrolidin-2-yl)methoxy)-5,6,7,8-tetrahydropyrido[3,4-d]pyrimidin-4-yl)piperazin-1-yl)-2-propen-1-one] | < 1000
C=CC(=O)N1CCN(c2nc(OC[C@@H]3CCCN3C)nc3c2CCN(c2cccc4cccc([13CH3])c24)C3)C[C@@H]1CC#N [Compound 10, 2-((S)-1-acryloyl-4-(7-(8-(methyl-^13C)naphthalen-1-yl)-2-(((S)-1-methylpyrrolidin-2-yl)methoxy)-5,6,7,8-tetrahydropyrido[3,4-d]pyrimidin-4-yl)piperazin-2-yl)acetonitrile] | < 1000
C=C(F)C(=O)N1CCN(c2nc(OC[C@@H]3CCCN3C)nc3c2CCN(c2cccc4cccc([14CH3])c24)C3)C[C@@H]1CC#N [Compound 13, 2-((S)-1-(2-fluoroacryloyl)-4-(7-(8-(methyl-^14C)naphthalen-1-yl)-2-(((S)-1-methylpyrrolidin-2-yl)methoxy)-5,6,7,8-tetrahydropyrido[3,4-d]pyrimidin-4-yl)piperazin-2-yl)acetonitrile] | < 1000
C=C(F)C(=O)N1CCN(c2nc(OC[C@@H]3CCCN3C)nc3c2CCN(c2cncc4cccc([14CH3])c24)C3)C[C@@H]1CC#N [Compound 14, 2-((S)-1-(2-fluoroacryloyl)-4-(7-(5-(methyl-^14C)isoquinolin-4-yl)-2-(((S)-1-methylpyrrolidin-2-yl)methoxy)-5,6,7,8-tetrahydropyrido[3,4-d]pyrimidin-4-yl)piperazin-2-yl)acetonitrile] | < 1000
C=CC(=O)N1CCN(c2nc(OC[C@@H]3CCCN3C)nc3c2CCN(c2cncc4cccc([13CH3])c24)C3)C[C@@H]1CC#N [Compound 15, 2-((S)-1-acryloyl-4-(7-(5-(methyl-^13C)isoquinolin-4-yl)-2-(((S)-1-methylpyrrolidin-2-yl)methoxy)-5,6,7,8-tetrahydropyrido[3,4-d]pyrimidin-4-yl)piperazin-2-yl)acetonitrile] | < 1000
C=C(F)C(=O)N1CCN(c2nc(OC[C@@H]3CCCN3C)nc3c2CCN(c2cncc4cccc([13CH3])c24)C3)C[C@@H]1CC#N [Compound 16, 2-((S)-1-(2-fluoroacryloyl)-4-(7-(5-(methyl-^13C)isoquinolin-4-yl)-2-(((S)-1-methylpyrrolidin-2-yl)methoxy)-5,6,7,8-tetrahydropyrido[3,4-d]pyrimidin-4-yl)piperazin-2-yl)acetonitrile] | < 1000
[2H]C([2H])([2H])N1CCC[C@H]1COc1nc2c(c(N3CCN(C(=O)C=C)[C@@H](CC#N)C3)n1)CCN(c1cncc3cccc(Cl)c13)C2 [Compound 20, 2-((S)-1-acryloyl-4-(7-(5-chloroisoquinolin-4-yl)-2-(((S)-1-(methyl-d3)pyrrolidin-2-yl)methoxy)-5,6,7,8-tetrahydropyrido[3,4-d]pyrimidin-4-yl)piperazin-2-yl)acetonitrile] | < 1000
[2H]C([2H])([2H])N1CCC[C@H]1COc1nc2c(c(N3CCN(C(=O)C=C)[C@@H](CC#N)C3)n1)CCN(c1cccc3cccc([11CH3])c13)C2 [Compound 22, 2-((S)-1-acryloyl-4-(2-(((S)-1-(methyl-d3)pyrrolidin-2-yl)methoxy)-7-(8-(methyl-^11C)naphthalen-1-yl)-5,6,7,8-tetrahydropyrido[3,4-d]pyrimidin-4-yl)piperazin-2-yl)acetonitrile] | < 1000
[2H]C([2H])([2H])c1cccc2cccc(N3CCc4c(nc(OC[C@@H]5CCCN5C([2H])([2H])[2H])nc4N4CCN(C(=O)C(=C)F)C[C@@H]4C)C3)c12 [Compound 23, 2-fluoro-1-((S)-3-methyl-4-(7-(8-(methyl-d3)naphthalen-1-yl)-2-(((S)-1-(methyl-d3)pyrrolidin-2-yl)methoxy)-5,6,7,8-tetrahydropyrido[3,4-d]pyrimidin-4-yl)piperazin-1-yl)-2-propen-1-one] | < 1000
[2H]C([2H])([2H])c1cccc2cccc(N3CCc4c(nc(OC[C@@H]5CCCN5C([2H])([2H])[2H])nc4N4CCN(C(=O)C=C)C[C@@H]4C)C3)c12 [Compound 24, 1-((S)-3-methyl-4-(7-(8-(methyl-d3)naphthalen-1-yl)-2-(((S)-1-(methyl-d3)pyrrolidin-2-yl)methoxy)-5,6,7,8-tetrahydropyrido[3,4-d]pyrimidin-4-yl)piperazin-1-yl)-2-propen-1-one] | < 1000

From patent publication US20230257374A1, “NOVEL KRAS G12C PROTEIN INHIBITOR, PREPARATION METHOD THEREFOR, AND USE THEREOF” (INNOVENT BIOLOGICS (SUZHOU) CO., LTD., priority 2019, published 2023)
